From patent US12509424B2, “Compound and composition as PDGF receptor kinase inhibitor” (NIPPON SHINYAKU CO., LTD., priority 2019, dated 2025)
Read-outs that look alike come from different tables or passages of the source.

Tests used:
PDGFR-β = PDGFR-β (Homo sapiens (Human), UniProt P09619); experiment: PDGFR-β tyrosine kinase inhibitory action (HTRF KinEASE-TK); type: biochemical; details: PDGFR-β enzyme 1 ng/μL, 30° C. for 30 minutes; read-out: PDGF-β IC50
In short: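 Recombinant PDGFR-β at 1 ng/μL final with TK substrate-3-biotin in a substrate solution containing 0.6 μM ATP; buffer 50 mM HEPES pH 7.0, 5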

[1] = molecular target: TEL-PDGFRβ fusion gene transfected cells (Ba/F3) (Homo sapiens, UniProt P09619); experiment: Suppression of proliferation of TEL-PDGFRβ fusion gene transfected Ba/F3 cells; type: cell-based; details: TEL-PDGFRβ expressing Ba/F3 cells, 72 hours, final concentration 0.1 to 10,000 nM; read-out: PDGFR β/BaF3 proliferation inhibition (IC50)
Sequence of TEL-PDGFRβ fusion gene transfected cells (Ba/F3) (Homo sapiens, UniProt P09619) (P09619 33-1106 limits assumed, change not shown): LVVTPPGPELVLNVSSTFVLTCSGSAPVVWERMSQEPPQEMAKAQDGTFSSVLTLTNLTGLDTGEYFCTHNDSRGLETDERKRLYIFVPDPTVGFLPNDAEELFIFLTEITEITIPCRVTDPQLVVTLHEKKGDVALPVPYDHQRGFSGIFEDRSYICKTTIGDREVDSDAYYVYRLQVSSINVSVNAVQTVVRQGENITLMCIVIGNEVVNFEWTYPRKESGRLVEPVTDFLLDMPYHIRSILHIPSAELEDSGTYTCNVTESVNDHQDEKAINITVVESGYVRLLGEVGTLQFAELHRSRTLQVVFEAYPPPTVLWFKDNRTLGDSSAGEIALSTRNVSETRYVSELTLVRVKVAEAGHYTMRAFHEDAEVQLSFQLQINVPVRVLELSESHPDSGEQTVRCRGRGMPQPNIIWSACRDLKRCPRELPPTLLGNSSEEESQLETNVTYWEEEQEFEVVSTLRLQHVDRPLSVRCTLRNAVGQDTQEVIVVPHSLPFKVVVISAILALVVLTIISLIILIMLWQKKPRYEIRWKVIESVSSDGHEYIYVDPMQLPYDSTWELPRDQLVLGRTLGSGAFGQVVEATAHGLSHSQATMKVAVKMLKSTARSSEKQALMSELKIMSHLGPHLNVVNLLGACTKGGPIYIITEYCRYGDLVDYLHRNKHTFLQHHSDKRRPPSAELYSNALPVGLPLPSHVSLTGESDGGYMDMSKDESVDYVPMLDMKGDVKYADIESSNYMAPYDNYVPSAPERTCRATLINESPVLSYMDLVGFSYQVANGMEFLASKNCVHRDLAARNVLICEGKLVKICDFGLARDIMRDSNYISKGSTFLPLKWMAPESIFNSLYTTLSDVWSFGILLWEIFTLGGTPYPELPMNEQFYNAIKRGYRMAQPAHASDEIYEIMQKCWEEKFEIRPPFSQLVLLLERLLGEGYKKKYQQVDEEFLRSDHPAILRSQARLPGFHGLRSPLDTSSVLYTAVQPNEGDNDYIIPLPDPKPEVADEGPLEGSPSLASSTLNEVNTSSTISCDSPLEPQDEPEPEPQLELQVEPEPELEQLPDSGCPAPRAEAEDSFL
Description: (§1) 2. Preparation of Test Substance
(§2) 4. Analysis of Measurement Results

[2] = molecular target: TEL-KIT fusion gene transfected cells (Ba/F3) (Homo sapiens, UniProt P10721); experiment: Suppression of proliferation of TEL-KIT fusion gene transfected Ba/F3 cells; details: read-out: KIT/BaF3 proliferation inhibition (IC50); TEL-KIT expressing Ba/F3 cells, 72 hours, final concentration 0.1 to 10,000 nM;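 also: viable cells quantified via formazan from tetrazolium reduction, inhibition scaled with 0.1% DMSO control as 0% and medium-only blank as 100%, IC50 from two-parameter logistic fit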
Sequence of TEL-KIT fusion gene transfected cells (Ba/F3) (Homo sapiens, UniProt P10721) (P10721 26-976 limits assumed, change not shown): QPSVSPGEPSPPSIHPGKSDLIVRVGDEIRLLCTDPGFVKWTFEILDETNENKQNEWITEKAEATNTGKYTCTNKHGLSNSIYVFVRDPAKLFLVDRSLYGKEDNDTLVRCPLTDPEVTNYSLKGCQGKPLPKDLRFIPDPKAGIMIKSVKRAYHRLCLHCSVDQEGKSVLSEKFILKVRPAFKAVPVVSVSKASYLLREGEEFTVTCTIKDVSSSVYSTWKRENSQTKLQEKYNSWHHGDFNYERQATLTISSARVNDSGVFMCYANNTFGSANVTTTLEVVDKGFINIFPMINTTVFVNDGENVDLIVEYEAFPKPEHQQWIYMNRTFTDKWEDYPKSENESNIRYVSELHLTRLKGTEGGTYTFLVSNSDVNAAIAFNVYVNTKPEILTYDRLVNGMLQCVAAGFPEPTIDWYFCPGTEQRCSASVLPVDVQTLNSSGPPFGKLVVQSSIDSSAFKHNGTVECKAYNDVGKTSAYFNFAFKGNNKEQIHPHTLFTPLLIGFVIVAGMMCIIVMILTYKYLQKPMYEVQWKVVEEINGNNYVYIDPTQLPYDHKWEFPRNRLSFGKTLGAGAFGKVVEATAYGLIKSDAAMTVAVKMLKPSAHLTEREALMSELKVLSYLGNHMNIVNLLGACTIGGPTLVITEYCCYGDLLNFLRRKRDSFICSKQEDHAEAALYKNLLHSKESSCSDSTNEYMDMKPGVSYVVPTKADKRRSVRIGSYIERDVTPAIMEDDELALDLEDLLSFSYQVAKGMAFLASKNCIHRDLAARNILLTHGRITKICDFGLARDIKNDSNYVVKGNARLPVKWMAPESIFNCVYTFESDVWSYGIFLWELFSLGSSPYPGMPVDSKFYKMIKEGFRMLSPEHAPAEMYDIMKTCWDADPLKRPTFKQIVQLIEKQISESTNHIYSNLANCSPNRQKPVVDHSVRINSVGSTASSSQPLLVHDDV

[3] = tested on: pulmonary arterial smooth muscle cells; experiment: Suppression of proliferation of pulmonary arterial smooth muscle cells (PDGF-BB stimulation, BrdU); type: cell-based; details: healthy human derived pulmonary arterial smooth muscle cells, human PDGF-BB 10 ng/mL stimulation, BrdU uptake after 1 day, test substance final concentration 3 to 10,000 nM, read-out: Human normal PASMC proliferation suppression (PDGF stimulation_IC50)
In short: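 Test compound (final 3 to 10,000 nM) was added together with BrdU and PDGF-BB (final 10 ng/mL) to healthy human pulmonary artery smooth muscle cells held a day in 0.1% FBS. Proliferation was read after 1 day as anti-BrdU-detected BrdU incorporation.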

[4] = molecular target: TEL-PDGFRβ fusion gene transfected cells (Ba/F3); experiment: Suppression of proliferation of TEL-PDGFRβ fusion gene transfected Ba/F3 cells; type: cell-based, human; details: TEL-PDGFRβ expressing Ba/F3 cells, 72 hours, final concentration 0.1 to 10,000 nM; read-out: PDGFR β/BaF3 proliferation inhibition (IC50)
Description: as §1, §2

[5] = molecular target: TEL-KIT fusion gene transfected cells (Ba/F3); experiment: Suppression of proliferation of TEL-KIT fusion gene transfected Ba/F3 cells; details: read-out: KIT/BaF3 proliferation inhibition (IC50); TEL-KIT expressing Ba/F3 cells, 72 hours, final concentration 0.1 to 10,000 nM;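 also: viable cells quantified via formazan from tetrazolium reduction, inhibition scaled with 0.1% DMSO control as 0% and medium-only blank as 100%, IC50 from two-parameter logistic fit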
Sequence of TEL-KIT fusion gene transfected cells (Ba/F3) (P10721 26-976 limits assumed, change not shown): as above

Sequence of PDGFR-β (P09619 33-1106): as the sequence (P09619 33-1106 limits assumed, change not shown) above

Molecule | IC50 (PDGFR-β) [nM] | IC50 [1] [nM] | IC50 [2] [nM] | IC50 [3] [nM] | IC50 ([3]; PASMC, 24 h) [nM] | IC50 [4] [nM] | IC50 [5] [nM]
3-{[([3,3′-bipyridin]-5-yl)methyl]amino}-N-[(1S,2S)-2-hydroxycyclohexyl]-4-methylbenzamide [Example 93] | 360 | 45 | 6200 | 260 |  |  | 
Cc1ccc(C(=O)N[C@H]2CCCC[C@@H]2O)cc1C#Cc1cncc(-c2ccccc2)c1 [Example 60, N-[(1S,2S)-2-hydroxycyclohexyl]-4-methyl-3-[(5-phenylpyridin-3-yl)ethynyl]benzamide] | 46 | 5.9 | 410 |  | 26 |  | 
Cc1ccc(C(=O)N[C@H]2CCCC[C@@H]2O)cc1C#Cc1cncc(-c2ccccc2)n1 [Example 75, N-[(1S,2S)-2-hydroxycyclohexyl]-4-methyl-3-[(6-phenylpyrazin-2-yl)ethynyl]benzamide] | 15 | 4.5 | 300 |  | 13 |  | 
Cc1ccc(C(=O)N[C@@H](CO)[C@@H](O)c2ccccc2)cc1CNc1cncc(Br)c1 [Example 152, 3-{[(5-bromopyridin-3-yl)amino]methyl}-N-[(1S,2S)-1,3-dihydroxy-1-phenylpropan-2-yl]-4-methylbenzamide] | 50 |  |  |  | 82 | 100 | > 10000
Cc1ccc(C(=O)N[C@@H](CO)[C@@H](O)c2ccccc2)cc1CNc1cncc(-c2ccccc2)c1 [Example 153, N-[(1S,2S)-1,3-dihydroxy-1-phenylpropan-2-yl]-4-methyl-3-{[(5-phenylpyridin-3-yl)amino]methyl}benzamide] | 88 |  |  |  | 62 | 27 | 7000
Cc1ccc(C(=O)N[C@@H](CO)[C@@H](O)c2ccccc2)cc1CNc1cncc(C2CC2)c1 [Example 154, 3-{[(5-cyclopropylpyridin-3-yl)amino]methyl}-N-[(1S,2S)-1,3-dihydroxy-1-phenylpropan-2-yl]-4-methylbenzamide] | 340 |  |  |  | 98 | 230 | > 10000
Cc1ccc(C(=O)N[C@@H](CO)[C@@H](O)c2ccccc2)cc1CNc1cncc(-c2ccccn2)c1 [Example 155, 3-{[([2,3′-bipyridin]-5′-yl)amino]methyl}-N-[(1S,2S)-1,3-dihydroxy-1-phenylpropan-2-yl]-4-methylbenzamide] | 36 |  |  |  | 160 | 69 | 10000
Cc1ccc(C(=O)N[C@@H](CO)[C@@H](O)c2ccccc2)cc1CNc1cncc(-c2ccccc2)n1 [Example 156, N-[(1S,2S)-1,3-dihydroxy-1-phenylpropan-2-yl]-4-methyl-3-{[(6-phenylpyrazin-2-yl)amino]methyl}benzamide] | 25 |  |  |  | 79 | 22 | > 10000
COc1ccc(-c2cncc(NCc3cccc(NC(=O)N[C@@H]4CCCC[C@@H]4O)c3)n2)cc1OC [Example 158, N-[3-({[6-(3,4-dimethoxyphenyl)pyrazin-2-yl]amino}methyl)phenyl]-N′-[(1R,2S)-2-hydroxycyclohexyl]urea] | 26 |  |  |  | 22 | 41 | 3000
O=C(Nc1cccc(CNc2cncc(-c3ncccn3)c2)c1)N[C@@H]1CCCC[C@@H]1O [Example 159, N-[(1R,2S)-2-hydroxycyclohexyl]-N′-[3-({[5-(pyrimidin-2-yl)pyridin-3-yl]amino}methyl)phenyl]urea] | 26 |  |  |  | 21 | 1.7 | 380
O=C(Nc1cc(CNc2cncc(-c3ncccn3)c2)ccc1F)N[C@@H]1CCCC[C@@H]1O [Example 160, N-[2-fluoro-5-({[5-(pyrimidin-2-yl)pyridin-3-yl]amino}methyl)phenyl]-N′-[(1R,2S)-2-hydroxycyclohexyl]urea] | 46 |  |  |  | 44 | 5.9 | 1200
O=C(Nc1ccc(F)c(CNc2cncc(-c3ncccn3)c2)c1)N[C@@H]1CCCC[C@@H]1O [Example 161, N-[4-fluoro-3-({[5-(pyrimidin-2-yl)pyridin-3-yl]amino}methyl)phenyl]-N′-[(1R,2S)-2-hydroxycyclohexyl]urea] | 16 |  |  |  | 110 | 4.8 | > 10000
Cc1ccc(NC(=O)N[C@@H]2CCCC[C@@H]2O)cc1CNc1cncc(-c2ncccn2)c1 [Example 162, N-[(1R,2S)-2-hydroxycyclohexyl]-N′-[4-methyl-3-({[5-(pyrimidin-2-yl)pyridin-3-yl]amino}methyl)phenyl]urea] | 2.6 |  |  |  | 36 | 1.1 | 270
Cc1ccc(CNc2cncc(-c3ncccn3)c2)cc1NC(=O)N[C@@H]1CCCC[C@@H]1O [Example 163, N-[(1R,2S)-2-hydroxycyclohexyl]-N′-[2-methyl-5-({[5-(pyrimidin-2-yl)pyridin-3-yl]amino}methyl)phenyl]urea] | 260 |  | 2600 | 150 |  | 200 | 
Cc1ccc(C(=O)N[C@H]2CCCC[C@@H]2O)cc1C(C)Nc1cncc(-c2ccccc2)n1 (stereo partly drawn) [Example 164, N-[(1S,2S)-2-hydroxycyclohexyl]-4-methyl-3-{1-[(6-phenylpyrazin-2-yl)amino]ethyl}benzamide] | 110 |  |  |  | 110 | 180 | 1400
Cc1ccc(C(=O)N[C@H]2CCCC[C@@H]2O)cc1OCc1cncc(-c2cccnc2)c1 [Example 165, 3-[([3,3′-bipyridin]-5-yl)methoxy]-N-[(1S,2S)-2-hydroxycyclohexyl]-4-methylbenzamide] | 390 |  |  |  | 46 | 9 | 2900
Cc1ccc(C(=O)N[C@H]2CCCC[C@@H]2O)cc1OCc1cncc(-c2ncccn2)c1 [Example 166, N-[(1S,2S)-2-hydroxycyclohexyl]-4-methyl-3-{[5-(pyrimidin-2-yl)pyridin-3-yl]methoxy}benzamide] | 49 |  |  |  | 65 | 2.5 | 1200
Cc1ccc(C(=O)N[C@H]2CCCC[C@@H]2O)cc1COc1cncc(-c2cccnc2)c1 [Example 168, 3-{[([3,3′-bipyridin]-5-yl)oxy]methyl}-N-[(1S,2S)-2-hydroxycyclohexyl]-4-methylbenzamide] | 350 |  |  |  | 110 | 18 | 4100
Cc1ccc(C(=O)N[C@H]2CCCC[C@@H]2O)cc1COc1cncc(-c2ncccn2)c1 [Example 169, N-[(1S,2S)-2-hydroxycyclohexyl]-4-methyl-3-({[5-(pyrimidin-2-yl)pyridin-3-yl]oxy}methyl)benzamide] | 52 |  |  |  | 43 | 4 | 400
Cc1ccc(C(=O)N[C@H]2CCCC[C@@H]2O)cc1/C=C/c1cncc(-c2ccccc2)c1 [Example 173, N-[(1S,2S)-2-hydroxycyclohexyl]-4-methyl-3-[(E)-2-(5-phenylpyridin-3-yl)ethenyl]benzamide] | 54 | 4.6 | 700 |  |  |  | 
